Several values for one entry are separate records, joined by “and”; a condition that tells them apart may be missing. Equal entries are not always repeated. ± gives the uncertainty stated by the source.
Columns and labels:
[1] = xn = mol fraction of the nth substance listed

Compound: CCCCCCCCCC
- viscosity (293.15 K, 100 kPa): 0.928 ± 0.01 mPa·s and 0.918 ± 0.02 mPa·s
- viscosity (293.15 K, 101.32 kPa): 0.91 ± 0.013 mPa·s
- viscosity (293.15 K, 101.33 kPa): 0.91 ± 0.012 mPa·s
- viscosity (298.15 K, 100 kPa): 0.853 ± 0.019 mPa·s and 0.874 ± 0.031 mPa·s
- viscosity (298.15 K, 103 kPa): 0.842 ± 0.04 mPa·s
- viscosity (303.15 K, 100 kPa): 0.807 ± 0.01 mPa·s and 0.795 ± 0.017 mPa·s (2×) and 0.791 ± 0.025 mPa·s
- viscosity (303.15 K, 101 kPa): 0.802 ± 0.008 mPa·s and 0.803 ± 0.014 mPa·s
- viscosity (303.15 K, 101.32 kPa): 0.785 ± 0.011 mPa·s
- viscosity (303.15 K, 101.33 kPa): 0.774 ± 0.02 mPa·s and 0.793 ± 0.01 mPa·s and 0.755 ± 0.015 mPa·s
- viscosity (308.15 K, 100 kPa): 0.745 ± 0.016 mPa·s and 0.744 ± 0.016 mPa·s
- viscosity (308.15 K, 103 kPa): 0.727 ± 0.04 mPa·s
- viscosity (313.15 K, 100 kPa): 0.691 ± 0.069 mPa·s and 0.7 ± 0.015 mPa·s (2×) and 0.699 ± 0.027 mPa·s
- viscosity (313.15 K, 101 kPa): 0.6883 ± 0.0088 mPa·s
- viscosity (313.15 K, 101.33 kPa): 0.673 ± 0.018 mPa·s
- viscosity (318.15 K, 100 kPa): 0.66 ± 0.014 mPa·s and 0.659 ± 0.014 mPa·s
- viscosity (318.15 K, 101 kPa): 0.66 ± 0.04 mPa·s and 0.6182 ± 0.0095 mPa·s and 0.6466 ± 0.0087 mPa·s
- viscosity (318.15 K, 101.33 kPa): 0.619 ± 0.008 mPa·s
- viscosity (318.15 K, 103 kPa): 0.64 ± 0.04 mPa·s
- viscosity (323.15 K, 100 kPa): 0.624 ± 0.014 mPa·s
- viscosity (323.15 K, 101 kPa): 0.6085 ± 0.0085 mPa·s

Compound: CCCCCCCO
- viscosity (293.15 K, 100 kPa): 7.018 ± 0.089 mPa·s
- viscosity (293.15 K, 101.3 kPa): 7.079 ± 0.15 mPa·s
- viscosity (298 K, 100 kPa): 5.956 ± 0.065 mPa·s
- viscosity (298.15 K, 101.3 kPa): 5.758 ± 0.067 mPa·s
- viscosity (298.15 K, 101.33 kPa): 5.69 ± 0.24 mPa·s and 5.652 ± 0.063 mPa·s
- viscosity (303 K, 100 kPa): 4.778 ± 0.96 mPa·s
- viscosity (303.15 K, 100 kPa): 5.014 ± 0.064 mPa·s
- viscosity (303.15 K, 101 kPa): 4.996 ± 0.42 mPa·s and 4.783 ± 0.96 mPa·s
- viscosity (303.15 K, 101.3 kPa): 4.814 ± 0.058 mPa·s and 4.785 ± 0.053 mPa·s
- viscosity (308.15 K, 100 kPa): 4.275 ± 0.054 mPa·s
- viscosity (308.15 K, 101 kPa): 4.176 ± 0.36 mPa·s and 4.691 ± 0.94 mPa·s and 4.069 ± 0.037 mPa·s
- viscosity (308.15 K, 101.3 kPa): 4.2 ± 0.025 mPa·s and 4.051 ± 0.049 mPa·s and 4.691 ± 0.11 mPa·s
- viscosity (308.15 K, 101.33 kPa): 4.002 ± 0.18 mPa·s and 4.045 ± 0.047 mPa·s and 4.175 ± 0.18 mPa·s
- viscosity (313 K, 100 kPa): 3.228 ± 0.65 mPa·s
- viscosity (313 K, 101 kPa): 3.55 ± 0.093 mPa·s
- viscosity (313.15 K, 100 kPa): 3.656 ± 0.046 mPa·s and 3.702 ± 0.11 mPa·s and 3.735 ± 0.1 mPa·s
- viscosity (313.15 K, 101 kPa): 3.723 ± 0.17 mPa·s and 4.598 ± 0.92 mPa·s
- viscosity (313.15 K, 101.3 kPa): 3.579 ± 0.041 mPa·s
- viscosity (318.15 K, 100 kPa): 3.407 ± 0.092 mPa·s
- viscosity (318.15 K, 101.3 kPa): 3.447 ± 0.081 mPa·s
- viscosity (323 K, 100 kPa): 2.529 ± 0.51 mPa·s
- viscosity (323.15 K, 100 kPa): 2.741 ± 0.034 mPa·s and 2.8 ± 0.28 mPa·s
- viscosity (323.15 K, 101.33 kPa): 2.741 ± 0.064 mPa·s and 2.741 ± 0.021 mPa·s

Compound: CCCCCCCO + c1ccccc1
- viscosity ([1]; 293.15 K, 100 kPa, x2 = 0.0864): 5.514 ± 0.28 mPa·s
- viscosity ([1]; 293.15 K, 100 kPa, x2 = 0.1561): 4.58 ± 0.23 mPa·s
- viscosity ([1]; 293.15 K, 100 kPa, x2 = 0.2397): 3.709 ± 0.19 mPa·s
- viscosity ([1]; 293.15 K, 100 kPa, x2 = 0.3469): 2.802 ± 0.14 mPa·s
- viscosity ([1]; 293.15 K, 100 kPa, x2 = 0.4396): 2.132 ± 0.11 mPa·s
- viscosity ([1]; 293.15 K, 100 kPa, x2 = 0.5661): 1.412 ± 0.072 mPa·s
- viscosity ([1]; 293.15 K, 100 kPa, x2 = 0.6446): 1.117 ± 0.057 mPa·s
- viscosity ([1]; 293.15 K, 100 kPa, x2 = 0.7517): 0.875 ± 0.044 mPa·s
- viscosity ([1]; 293.15 K, 100 kPa, x2 = 0.8493): 0.766 ± 0.039 mPa·s
- viscosity ([1]; 293.15 K, 100 kPa, x2 = 0.9561): 0.681 ± 0.035 mPa·s
- viscosity ([1]; 303.15 K, 100 kPa, x2 = 0.0864): 3.992 ± 0.2 mPa·s
- viscosity ([1]; 303.15 K, 100 kPa, x2 = 0.1561): 3.302 ± 0.17 mPa·s
- viscosity ([1]; 303.15 K, 100 kPa, x2 = 0.2397): 2.668 ± 0.14 mPa·s
- viscosity ([1]; 303.15 K, 100 kPa, x2 = 0.3469): 2.018 ± 0.1 mPa·s
- viscosity ([1]; 303.15 K, 100 kPa, x2 = 0.4396): 1.568 ± 0.08 mPa·s
- viscosity ([1]; 303.15 K, 100 kPa, x2 = 0.5661): 1.053 ± 0.054 mPa·s
- viscosity ([1]; 303.15 K, 100 kPa, x2 = 0.6446): 0.859 ± 0.044 mPa·s
- viscosity ([1]; 303.15 K, 100 kPa, x2 = 0.7517): 0.703 ± 0.036 mPa·s
- viscosity ([1]; 303.15 K, 100 kPa, x2 = 0.8493): 0.625 ± 0.032 mPa·s
- viscosity ([1]; 303.15 K, 100 kPa, x2 = 0.9561): 0.573 ± 0.029 mPa·s
- viscosity ([1]; 313.15 K, 100 kPa, x2 = 0.0864): 2.947 ± 0.15 mPa·s
- viscosity ([1]; 313.15 K, 100 kPa, x2 = 0.1561): 2.439 ± 0.12 mPa·s
- viscosity ([1]; 313.15 K, 100 kPa, x2 = 0.2397): 1.973 ± 0.1 mPa·s
- viscosity ([1]; 313.15 K, 100 kPa, x2 = 0.3469): 1.501 ± 0.076 mPa·s
- viscosity ([1]; 313.15 K, 100 kPa, x2 = 0.4396): 1.172 ± 0.059 mPa·s
- viscosity ([1]; 313.15 K, 100 kPa, x2 = 0.5661): 0.822 ± 0.042 mPa·s
- viscosity ([1]; 313.15 K, 100 kPa, x2 = 0.6446): 0.679 ± 0.035 mPa·s
- viscosity ([1]; 313.15 K, 100 kPa, x2 = 0.7517): 0.573 ± 0.029 mPa·s
- viscosity ([1]; 313.15 K, 100 kPa, x2 = 0.8493): 0.525 ± 0.027 mPa·s
- viscosity ([1]; 313.15 K, 100 kPa, x2 = 0.9561): 0.498 ± 0.026 mPa·s
- viscosity ([1]; 323.15 K, 100 kPa, x2 = 0.0864): 2.279 ± 0.12 mPa·s
- viscosity ([1]; 323.15 K, 100 kPa, x2 = 0.1561): 1.918 ± 0.097 mPa·s
- viscosity ([1]; 323.15 K, 100 kPa, x2 = 0.2397): 1.573 ± 0.08 mPa·s
- viscosity ([1]; 323.15 K, 100 kPa, x2 = 0.3469): 1.203 ± 0.061 mPa·s
- viscosity ([1]; 323.15 K, 100 kPa, x2 = 0.4396): 0.942 ± 0.048 mPa·s
- viscosity ([1]; 323.15 K, 100 kPa, x2 = 0.5661): 0.665 ± 0.034 mPa·s
- viscosity ([1]; 323.15 K, 100 kPa, x2 = 0.6446): 0.556 ± 0.028 mPa·s
- viscosity ([1]; 323.15 K, 100 kPa, x2 = 0.7517): 0.479 ± 0.025 mPa·s
- viscosity ([1]; 323.15 K, 100 kPa, x2 = 0.8493): 0.442 ± 0.023 mPa·s
- viscosity ([1]; 323.15 K, 100 kPa, x2 = 0.9561): 0.437 ± 0.022 mPa·s

Compound: CCCCCCCCCCCCCC[P+](CCCCCC)(CCCCCC)CCCCCC.c1ccc2[n-]nnc2c1 + O=C=O
- viscosity ([1]; 298.15 K, 100 kPa, x2 = 0.19): 443 ± 18 mPa·s

Compound: CCCCCCCO + CCOC(C)=O
- viscosity ([1]; 298.15 K, 101.33 kPa, x2 = 0.1277): 3.587 ± 0.16 mPa·s
- viscosity ([1]; 298.15 K, 101.33 kPa, x2 = 0.2478): 2.423 ± 0.11 mPa·s
- viscosity ([1]; 298.15 K, 101.33 kPa, x2 = 0.3609): 1.721 ± 0.08 mPa·s
- viscosity ([1]; 298.15 K, 101.33 kPa, x2 = 0.4677): 1.284 ± 0.062 mPa·s
- viscosity ([1]; 298.15 K, 101.33 kPa, x2 = 0.5686): 1 ± 0.049 mPa·s
- viscosity ([1]; 298.15 K, 101.33 kPa, x2 = 0.6673): 0.823 ± 0.042 mPa·s
- viscosity ([1]; 298.15 K, 101.33 kPa, x2 = 0.7546): 0.663 ± 0.035 mPa·s
- viscosity ([1]; 298.15 K, 101.33 kPa, x2 = 0.8406): 0.569 ± 0.031 mPa·s
- viscosity ([1]; 303.15 K, 101.33 kPa, x2 = 0.1277): 3.13 ± 0.14 mPa·s
- viscosity ([1]; 303.15 K, 101.33 kPa, x2 = 0.2478): 2.144 ± 0.098 mPa·s
- viscosity ([1]; 303.15 K, 101.33 kPa, x2 = 0.3609): 1.543 ± 0.073 mPa·s
- viscosity ([1]; 303.15 K, 101.33 kPa, x2 = 0.4677): 1.184 ± 0.057 mPa·s
- viscosity ([1]; 303.15 K, 101.33 kPa, x2 = 0.5686): 0.914 ± 0.046 mPa·s
- viscosity ([1]; 303.15 K, 101.33 kPa, x2 = 0.6673): 0.752 ± 0.039 mPa·s
- viscosity ([1]; 303.15 K, 101.33 kPa, x2 = 0.7546): 0.627 ± 0.033 mPa·s
- viscosity ([1]; 303.15 K, 101.33 kPa, x2 = 0.8406): 0.529 ± 0.029 mPa·s
- viscosity ([1]; 308.15 K, 101.33 kPa, x2 = 0.1277): 2.724 ± 0.12 mPa·s
- viscosity ([1]; 308.15 K, 101.33 kPa, x2 = 0.2478): 1.904 ± 0.088 mPa·s
- viscosity ([1]; 308.15 K, 101.33 kPa, x2 = 0.3609): 1.41 ± 0.067 mPa·s
- viscosity ([1]; 308.15 K, 101.33 kPa, x2 = 0.4677): 1.065 ± 0.052 mPa·s
- viscosity ([1]; 308.15 K, 101.33 kPa, x2 = 0.5686): 0.839 ± 0.042 mPa·s
- viscosity ([1]; 308.15 K, 101.33 kPa, x2 = 0.6673): 0.696 ± 0.036 mPa·s
- viscosity ([1]; 308.15 K, 101.33 kPa, x2 = 0.7546): 0.576 ± 0.031 mPa·s
- viscosity ([1]; 308.15 K, 101.33 kPa, x2 = 0.8406): 0.496 ± 0.028 mPa·s

Compound: CCOC(=O)C(C)O (stereo not given) + C1CCOC1
- viscosity ([1]; 308.15 K, 101 kPa, x1 = 0.6999): 1.255 ± 0.024 mPa·s
- viscosity ([1]; 313.15 K, 101 kPa, x1 = 0.4001): 0.7575 ± 0.014 mPa·s
